Reference: patent US12415786B2, “Substituted 2-heteroarylaminobenzenes and the salts thereof and their use as herbicidal agents” (Bayer Aktiengesellschaft, priority 2019, dated 2025)

Tests used:
Type in all cases: in vivo
Stellaria media [1] = assay: Herbicidal post-emergence action (greenhouse pots), STEME; details: 1280 g/ha, visual rating about 3 weeks after treatment vs untreated controls
Description: (§1) In the examples and tables below, the following abbreviations are used: • Undesired Plants/Weeds: • ABUTH: Abutilon theophrasti • AGSTE: Agrostis tenuis • AMARE Amaranthus retroflexus • ECHCG: Echinochloa crus-galli • LOLRI: Lolium rigidum • MATIN: Matricaria inodora • POAAN: Poa annua • SETVI: Setaria viridis • STEME: Stellaria media A. Herbicidal Early Post-Emergence Action Seeds of mono- and dicotyledonous weed plants were placed in plastic pots in sandy loam soil (doubly sown with in each case one species of mono- or dicotyledonous weed plants per pot), covered with soil and cultivated in a greenhouse under controlled growth conditions. 2 to 3 weeks after sowing, the test plants were treated at the one-leaf stage. The compounds of the invention, formulated in the form of wettable powders (WP) or as emulsion concentrates (EC), were applied onto the green parts of the plants as aqueous suspension or emulsion with addition of 0.5% additive at a water application rate of 600 liters per hectare (converted). After the test plants had been kept in the greenhouse under optimum growth conditions for about 3 weeks, the activity of the preparations was rated visually in comparison to untreated controls. For example, 100% activity=the plants have died, 0% activity=like untreated control plants. Tables B1-B8 below show the effects of selected compounds of the general formula (I) according to Table 1 above on various harmful plants and an application rate corresponding to 1280 g/ha, which were obtained by the experimental procedure mentioned above.

Agrostis tenuis = assay: Herbicidal early post-emergence action (96-well microtiter plates), AGSTE; details: 1900 g/ha, scored 9 to 12 days after treatment, 100% = plants have died, 0% = like untreated control plants
Description: (§2) In the examples and tables below, the following abbreviations are used: • Undesired Plants/Weeds: • ABUTH: Abutilon theophrasti • AGSTE: Agrostis tenuis • AMARE Amaranthus retroflexus • ECHCG: Echinochloa crus-galli • LOLRI: Lolium rigidum • MATIN: Matricaria inodora • POAAN: Poa annua • SETVI: Setaria viridis • STEME: Stellaria media A. Herbicidal Early Post-Emergence Action Seeds of monocotyledonous and dicotyledonous weed plants were placed in 96-well microtiter plates in quartz sand and grown in a climatized chamber under controlled growth conditions. 5 to 7 days after sowing, the test plants were treated at the cotyledon stage. The compounds according to the invention, formulated in the form of emulsion concentrates (EC), were applied with a water application rate of the equivalent of 2200 liters per hectare. After the test plants had been left to stand in the climatized chamber for 9 to 12 days under optimum growth conditions, the effect of the preparations was scored visually in comparison to untreated controls. Here, for example, 100% activity=the plants have died, 0% activity=like untreated control plants. Tables A1 to A2 below show the effects of selected compounds of the general formula (I) according to Table 1 above on various harmful plants and an application rate corresponding to 1900 g/ha, which were obtained by the experimental procedure mentioned above.

Amaranthus retroflexus [2] = assay: Herbicidal pre-emergence action (greenhouse pots), AMARE; details: 1280 g/ha, visual scoring after about 3 weeks vs untreated controls
Description: (§3) In the examples and tables below, the following abbreviations are used: • Undesired Plants/Weeds: • ABUTH: Abutilon theophrasti • AGSTE: Agrostis tenuis • AMARE Amaranthus retroflexus • ECHCG: Echinochloa crus-galli • LOLRI: Lolium rigidum • MATIN: Matricaria inodora • POAAN: Poa annua • SETVI: Setaria viridis • STEME: Stellaria media A. Herbicidal Early Post-Emergence Action Seeds of mono- and dicotyledonous weed plants were placed in plastic pots in sandy loam soil (doubly sown with one species each of mono- or dicotyledonous weed plants per pot) and covered with soil. The compounds of the invention, formulated in the form of wettable powders (WP) or as emulsion concentrates (EC), were then applied onto the surface of the covering soil as aqueous suspension or emulsion with addition of 0.5% additive at a water application rate of 600 liters per hectare (converted). After the treatment, the pots were placed in a greenhouse and kept under good growth conditions for the test plants. After about 3 weeks, the effect of the preparations was scored visually in comparison with untreated controls as percentages. For example, 100% activity=the plants have died, 0% activity=like untreated control plants. Tables C1-C8 below show the effects of selected compounds of the general formula (I) according to Table 1 above on various harmful plants and an application rate corresponding to 1280 g/ha, which were obtained by the experimental procedure mentioned above.

Setaria viridis = assay: Herbicidal pre-emergence action (greenhouse pots), SETVI; details: 1280 g/ha, visual scoring after about 3 weeks vs untreated controls
Description: as §3

Poa annua [3] = assay: Herbicidal early post-emergence action (96-well microtiter plates), POAAN; details: 1900 g/ha, scored 9 to 12 days after treatment, 100% = plants have died, 0% = like untreated control plants
Description: as §2

Amaranthus retroflexus [4] = assay: Herbicidal post-emergence action (greenhouse pots), AMARE; details: 1280 g/ha, visual rating about 3 weeks after treatment vs untreated controls
Description: as §1

Poa annua [5] = assay: Herbicidal pre-emergence action (greenhouse pots), POAAN; details: 1280 g/ha, visual scoring after about 3 weeks vs untreated controls
Description: as §3

Stellaria media [6] = assay: Herbicidal pre-emergence action (greenhouse pots), STEME; details: 1280 g/ha, visual scoring after about 3 weeks vs untreated controls
Description: as §3

Matricaria inodora = assay: Herbicidal pre-emergence action (greenhouse pots), MATIN; details: 1280 g/ha, visual scoring after about 3 weeks vs untreated controls
Description: as §3

SMILES	herbicidal activity STEME (Stellaria media [1]) [%]	AGSTE (herbicidal activity, scored visually in comparison to untreated controls) (Agrostis tenuis) [%]	herbicidal activity AMARE (Amaranthus retroflexus [2]) [%]	herbicidal activity SETVI (Setaria viridis) [%]	POAAN (herbicidal activity, scored visually in comparison to untreated controls) (Poa annua [3]) [%]	herbicidal activity AMARE (Amaranthus retroflexus [4]) [%]	herbicidal activity POAAN (Poa annua [5]) [%]	herbicidal activity STEME (Stellaria media [6]) [%]	herbicidal activity MATIN (Matricaria inodora) [%]
N#Cc1cccc(Nc2ccccn2)c1Oc1ccc(F)cc1 [Example 1-88]	100	100	100	90	80	–	–	–	–
N#Cc1cccc(Nc2ccc(F)cn2)c1Oc1ccc(F)cc1 [Example 1-106]	90	100	100	–	100	100	100	–	–
N#Cc1cccc(Nc2ncccn2)c1Oc1ccc(Cl)cc1 [Example 1-250]	90	80	100	90	80	100	100	100	–
N#Cc1cccc(Nc2ncccn2)c1Oc1ccc(F)cc1F [Example 1-251]	–	80	100	90	80	100	–	100	100
N#Cc1cccc(Nc2ncccn2)c1Oc1ccc(F)cc1Cl [Example 1-255]	100	80	100	–	80	100	–	100	–
N#Cc1cccc(Nc2ncccn2)c1Oc1ccc(Cl)cc1F [Example 1-256]	–	80	100	90	80	100	100	100	90
N#Cc1cccc(Nc2ncc(F)cn2)c1Oc1ccc(F)cc1Cl [Example 1-274]	90	80	90	–	100	100	90	90	–
COc1cccc(Oc2c(C#N)cccc2Nc2ncc(Cl)cn2)c1 [Example 1-300]	–	80	90	–	–	100	–	100	90
N#Cc1cnc(Nc2cccc(C#N)c2Oc2ccc(F)cc2)nc1 [Example 1-304]	–	100	100	100	100	100	100	100	100
N#Cc1cnc(Nc2cccc(C#N)c2Oc2ccc(F)c(F)c2)nc1 [Example 1-305]	100	100	100	90	100	100	100	100	100
N#Cc1ccc(Oc2ccccc2Nc2ncc(Cl)cn2)cc1 [Example 1-339]	100	100	–	–	100	100	–	–	–
